# Test results published in patent US7071231B2, “Naphthalene ureas as glucose uptake enhancers” (Telik, Inc., priority 1999, dated 2006).
# Where a name gives a salt, the structure may show the parent alone.
# Columns and labels:
# [1] = biological target: T1, β-kinase domain of the human insulin receptor (CKD) (Homo sapiens, UniProt P06213); assay: 32P-cytoplasmic kinase domain (CKD) autophosphorylation assay; format: biochemical; details: phosphorylation of CKD expressed as % of the vehicle level; 10 minutes at room temperature; compound concentration not given
# T1 construct: The complete β-kinase domain of the human insulin receptor (CKD) was expressed in, and purified from, baculovirus; made in house
# Protocol: ^32P-cytoplasmic Kinase Domain (CKD) Autophosphorylation Assay The insulin signaling pathway is activated through stimulation of the insulin receptor. A major component of this activation is the phosphorylation of a specific portion of the receptor called the β-kinase domain. The complete β-kinase domain of the human insulin receptor (CKD) was expressed in, and purified from, baculovirus. CKD (4.0μg/ml), in a solution of 29 mM HEPES (pH 7.6), 0.05% Triton X-100, 10 mM MgCl2, 2 mM MnCl2 (50 μl final volume), was combined with 50 μM ATP, and 5 μCi ^32P-ATP (3000Ci/mmol.). A test compound, or the vehicle (dimethyl sulfoxide (DMSO)) was added to a final DMSO concentration of 1%. The mixture was incubated for 10 minutes at room temperature. The reaction was terminated by the addition of 10 μl 200 mM EDTA. A 30 μl volume was removed, mixed with 5 μl of 6× Laemmeli sodium dodecyl sulfate (SDS) treatment buffer, and heated to 94° C. for 5 minutes. A 20 μl aliquot was then run an SDS-PAGE gel. The radioactivity incorporated into the CKD band was quantified by phosphorimaging of the gel, or scintillation counting of the excised bands. The potency of a compound for increasing phosphorylation was expressed as % of the vehicle level.
# 3T3 L1 fibroblasts = assay: Glucose transport activity assay (14C-2-deoxy-D-glucose uptake); format: cell-based; details: Mus musculus, 3T3-L1, read-out: Concentration (μM) to reach >150% activity of vehicle control
# Summary of the method: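 Differentiated 3T3 L1 adipocytes (IBMX/dexamethasone/insulin induction), serum-starved overnight, preincubated 30 min at 37 °C with compound ± insulin in pH 7.4 salt buffer, then 30 min with 5 μCi/ml 14C-2-deoxy-D-glucose. Lysate radioactivity counted; EC = concentration raising uptake above 150% of vehicle control.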
# [2] = test system: Escherichia coli strain WP2uvrA; assay: Ames test, Escherichia coli strain; details: 50 to 5000 μg/plate, without and with induced rat liver S-9 plus cofactors
# [3] = test system: Salmonella typhimurium strains, TA100, TA1535, and TA1537; assay: Ames test, Salmonella typhimurium strains; details: 50 to 5000 μg/plate, without and with induced rat liver S-9 plus cofactors
# T1 sequence (P06213 980-1382 limits assumed): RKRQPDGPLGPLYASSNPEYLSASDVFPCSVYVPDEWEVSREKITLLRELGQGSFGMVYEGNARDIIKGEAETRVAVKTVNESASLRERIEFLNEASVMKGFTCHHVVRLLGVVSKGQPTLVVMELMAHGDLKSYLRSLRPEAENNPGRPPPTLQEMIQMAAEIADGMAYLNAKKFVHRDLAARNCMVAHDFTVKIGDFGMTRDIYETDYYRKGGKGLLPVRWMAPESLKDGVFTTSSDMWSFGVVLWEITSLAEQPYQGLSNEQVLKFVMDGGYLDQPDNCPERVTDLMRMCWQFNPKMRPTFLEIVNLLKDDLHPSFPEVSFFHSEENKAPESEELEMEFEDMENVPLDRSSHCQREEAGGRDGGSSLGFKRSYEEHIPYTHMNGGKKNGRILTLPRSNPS
smiles,measurement,setting,value
"O=C(Nc1ccc2c(O)cc(S(=O)(=O)O)cc2c1)Nc1ccc2c(O)cc(S(=O)(=O)O)cc2c1 [Compound 4, 4-hydroxy-7-{[(5-hydroxy-7-sulfo(2-naphthyl))amino]carbonylamino}naphthalene-2-sulfonic acid disodium salt]",% Activity vs. Control,[1],152%
same,EC (150% of vehicle control),3T3 L1 fibroblasts,32 µM
same,"mutagenicity (revertant colonies), tryptophan operon",[2],negative
same,"mutagenicity (revertant colonies), histidine operon",[3],negative
